Assay results: the supplement of paper PMC10627819

Legend:
B. subtilis 168 [1] = assay: fitness (endpoint OD595 vs no drug) (fraction); higher = more growth
Summary of the method: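 Each well of a 384-well plate received 30 µl of culture at OD595 0.01, or 55 µl for S. pneumoniae. TSB, LB Lennox or CY served as media at 37 °C. OD595 was taken every 30 min for 14 h and corrected by subtracting the first reading. Fitness is the optical density at stationary-phase entry divided by the robust mean of no-drug controls, capped at 1.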

S. pneumoniae D39V = assay: Bliss interaction score (quartile over a dose matrix) (fitness difference); higher = more antagonism (negative = synergy)
Summary of the method: (§1)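 Each plate was normalised to the robust mean of its own no-drug wells, using OD595 at entry into stationary phase, with values capped at 1. This normalised growth is the fitness value. The Bliss score is the difference between observed and product-expected fitness, with single-drug fitness inferred from the combination data and quartiles taken over technical, biological and donor/recipient replicates.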

B. subtilis 168 [2] = assay: as above
Summary of the method: as §1

S. aureus Newman = assay: as above
Summary of the method: as §1

S. aureus DSM 20231 = assay: as above
Summary of the method: as §1
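Wherever Bliss interaction score (quartile over a dose matrix) is given: first quartile when negative (synergy) and third quartile when positive (antagonism).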

CC[C@H](C)[C@H](N)C1=N[C@H](C(=O)N[C@@H](CC(C)C)C(=O)N[C@H](CCC(=O)O)C(=O)N[C@H](C(=O)N[C@H]2CCCCNC(=O)[C@H](CC(N)=O)NC(=O)[C@@H](CC(=O)O)NC(=O)[C@H](Cc3cnc[nH]3)NC(=O)[C@@H](Cc3ccccc3)NC(=O)[C@H]([C@@H](C)CC)NC(=O)[C@@H](CCCN)NC2=O)[C@@H](C)CC)CS1 [Bacitracin] + COc1cc(Cc2cnc(N)nc2N)cc(OC)c1OC [Trimethoprim]
fitness, B. subtilis 168 [1], one replicate, main component drawn
Settings | partner 0.1 µg/mL | partner 0.2 µg/mL | partner 0.4 µg/mL | partner 1 µg/mL | partner 2 µg/mL
first compound 37.5 µg/mL | 0.925 | 0.65 | 0.508 | 0.462 | 0.24
first compound 75 µg/mL | 0.898 | 0.715 | 0.532 | 0.441 | 0.235
first compound 150 µg/mL | 0.875 | 0.71 | 0.499 | 0.348 | 0.219

fitness, B. subtilis 168 [1], main component drawn
Settings | first compound 37.5 µg/mL | first compound 75 µg/mL | first compound 150 µg/mL
partner 0.125 µg/mL | 0.615 | 0.593 | 0.338
partner 0.5 µg/mL | 0.518 | – | –

main component drawn
Settings | Bliss interaction score
B. subtilis 168 [2] | 0.0858
S. aureus DSM 20231 | 0.013
S. aureus Newman | -0.08
S. pneumoniae D39V | -0.0391

CC[C@H](C)[C@H](N)C1=N[C@H](C(=O)N[C@@H](CC(C)C)C(=O)N[C@H](CCC(=O)O)C(=O)N[C@H](C(=O)N[C@H]2CCCCNC(=O)[C@H](CC(N)=O)NC(=O)[C@@H](CC(=O)O)NC(=O)[C@H](Cc3cnc[nH]3)NC(=O)[C@@H](Cc3ccccc3)NC(=O)[C@H]([C@@H](C)CC)NC(=O)[C@@H](CCCN)NC2=O)[C@@H](C)CC)CS1 [Bacitracin] + C[C@H]1COc2c(N3CCN(C)CC3)c(F)cc3c(=O)c(C(=O)O)cn1c23 [Levofloxacin]
fitness, B. subtilis 168 [1], one replicate, main component drawn
Settings | first compound 37.5 µg/mL | first compound 75 µg/mL | first compound 150 µg/mL
partner 0.001 µg/mL | 0.94 | 0.969 | 0.728
partner 0.0078 µg/mL | 0.842 | 0.844 | 0.439

fitness, B. subtilis 168 [1], main component drawn
Settings | partner 0.002 µg/mL | partner 0.0039 µg/mL | partner 0.0312 µg/mL | partner 0.0625 µg/mL | partner 0.125 µg/mL
first compound 37.5 µg/mL | 0.812 | 0.851 | 0.0268 | 0.0345 | 0.0392
first compound 75 µg/mL | 0.851 | 0.818 | 0.0206 | 0.0236 | 0.0256
first compound 150 µg/mL | 0.527 | 0.55 | 0.0178 | 0.0214 | 0.0173

main component drawn
Settings | Bliss interaction score
B. subtilis 168 [2] | 0.0288
S. aureus DSM 20231 | 0.034
S. aureus Newman | -0.043
S. pneumoniae D39V | -0.072

CC[C@H](C)[C@H](N)C1=N[C@H](C(=O)N[C@@H](CC(C)C)C(=O)N[C@H](CCC(=O)O)C(=O)N[C@H](C(=O)N[C@H]2CCCCNC(=O)[C@H](CC(N)=O)NC(=O)[C@@H](CC(=O)O)NC(=O)[C@H](Cc3cnc[nH]3)NC(=O)[C@@H](Cc3ccccc3)NC(=O)[C@H]([C@@H](C)CC)NC(=O)[C@@H](CCCN)NC2=O)[C@@H](C)CC)CS1 [Bacitracin] + C[C@H]1c2cccc(O)c2C(=O)C2=C(O)[C@]3(O)C(=O)C(C(N)=O)=C(O)[C@@H](N(C)C)[C@@H]3[C@@H](O)[C@@H]21 [Doxycycline]
fitness, B. subtilis 168 [1], main component drawn
Settings | first compound 37.5 µg/mL | first compound 75 µg/mL | first compound 150 µg/mL
partner 0.02 µg/mL | 0.844 | 0.81 | –
partner 0.04 µg/mL | 0.716 | 0.664 | 0.48
partner 0.08 µg/mL | 0.476 | 0.218 | 0.0689

main component drawn
Settings | Bliss interaction score
B. subtilis 168 [2] | -0.0867
S. aureus DSM 20231 | 0.101
S. aureus Newman | -0.0186
S. pneumoniae D39V | 0.0989

CC(=O)NC[C@H]1CN(c2ccc(N3CCOCC3)c(F)c2)C(=O)O1 [Linezolid] + CO[C@@H]1[C@@H](OC(N)=O)[C@@H](O)[C@H](Oc2ccc3c(O)c(NC(=O)c4ccc(O)c(CC=C(C)C)c4)c(=O)oc3c2C)OC1(C)C [Novobiocin]
fitness, B. subtilis 168 [1], one replicate
Settings | partner 0.05 µg/mL | partner 0.1 µg/mL | partner 0.125 µg/mL | partner 0.2 µg/mL | partner 0.25 µg/mL | partner 0.5 µg/mL
first compound 0.0625 µg/mL | 0.871 | 0.925 | – | 0.885 | – | –
first compound 0.125 µg/mL | – | 0.595 | 0.846 | 0.554 | 0.727 | 0.578
first compound 0.25 µg/mL | – | 0.0625 | 0.349 | 0.0582 | 0.218 | 0.242
first compound 0.5 µg/mL | – | – | 0.069 | – | 0.0496 | 0.0575

fitness, B. subtilis 168 [1]
Settings | first compound 0.125 µg/mL | first compound 0.25 µg/mL | first compound 0.5 µg/mL
partner 0.0125 µg/mL | 0.659 | 0.23 | 0.0324
partner 0.025 µg/mL | 0.574 | 0.182 | 0.0304
partner 0.05 µg/mL | 0.597 | 0.0885 | 0.0285

Settings | Bliss interaction score
B. subtilis 168 [2] | 0.046
S. aureus DSM 20231 | 0.0424
S. aureus Newman | 0.0413
S. pneumoniae D39V | -0.123

CO[C@H]1/C=C/O[C@@]2(C)Oc3c(C)c(O)c4c(O)c(c(/C=N/N5CCN(C)CC5)c(O)c4c3C2=O)NC(=O)/C(C)=C\C=C\[C@H](C)[C@H](O)[C@@H](C)[C@@H](O)[C@@H](C)[C@H](OC(C)=O)[C@@H]1C [Rifampicin] + COc1cc(Cc2cnc(N)nc2N)cc(OC)c1OC [Trimethoprim]
Settings | Bliss interaction score
B. subtilis 168 [2] | 0.131
S. aureus DSM 20231 | -0.0578
S. aureus Newman | -0.0473
S. pneumoniae D39V | 0.0931

CO[C@H]1/C=C/O[C@@]2(C)Oc3c(C)c(O)c4c(O)c(c(/C=N/N5CCN(C)CC5)c(O)c4c3C2=O)NC(=O)/C(C)=C\C=C\[C@H](C)[C@H](O)[C@@H](C)[C@@H](O)[C@@H](C)[C@H](OC(C)=O)[C@@H]1C [Rifampicin] + Oc1cc(Cl)ccc1Oc1ccc(Cl)cc1Cl [Triclosan]
Settings | Bliss interaction score
B. subtilis 168 [2] | 0.0445
S. aureus DSM 20231 | -0.0595
S. aureus Newman | 0.0206
S. pneumoniae D39V | -0.0563

CN[C@@H]1[C@H](O)[C@H](NC)[C@H]2O[C@@]3(O)C(=O)C[C@@H](C)O[C@H]3O[C@@H]2[C@H]1O [Spectinomycin] + CC[C@H]1OC(=O)[C@H](C)C(=O)[C@H](C)[C@@H](O[C@@H]2O[C@H](C)C[C@H](N(C)C)[C@H]2O)[C@](C)(OC)C[C@@H](C)C(=O)[C@H](C)[C@H]2N(CCCCn3cnc(-c4cccnc4)c3)C(=O)O[C@]12C [Telithromycin]
Settings | Bliss interaction score
B. subtilis 168 [2] | 0.038
S. aureus DSM 20231 | -0.0419
S. aureus Newman | -0.0947
S. pneumoniae D39V | -0.14

CN[C@@H]1[C@H](O)[C@H](NC)[C@H]2O[C@@]3(O)C(=O)C[C@@H](C)O[C@H]3O[C@@H]2[C@H]1O [Spectinomycin] + Cc1cc(NS(=O)(=O)c2ccc(N)cc2)no1 [Sulfamethoxazol]
Settings | Bliss interaction score
B. subtilis 168 [2] | -0.0406
S. aureus DSM 20231 | -0.0866
S. aureus Newman | 0.0687
S. pneumoniae D39V | -0.0374

CN[C@@H]1[C@H](O)[C@H](NC)[C@H]2O[C@@]3(O)C(=O)C[C@@H](C)O[C@H]3O[C@@H]2[C@H]1O [Spectinomycin] + Oc1cc(Cl)ccc1Oc1ccc(Cl)cc1Cl [Triclosan]
Settings | Bliss interaction score
B. subtilis 168 [2] | -0.0762
S. aureus DSM 20231 | -0.0648
S. aureus Newman | 0.0626
S. pneumoniae D39V | 0.0557

CN[C@@H]1[C@H](O[C@H]2[C@H](O[C@H]3[C@H](O)[C@@H](O)[C@H](N=C(N)N)[C@@H](O)[C@@H]3N=C(N)N)O[C@@H](C)[C@]2(O)C=O)O[C@@H](CO)[C@H](O)[C@H]1O [Streptomycin] + CC[C@H]1OC(=O)[C@H](C)C(=O)[C@H](C)[C@@H](O[C@@H]2O[C@H](C)C[C@H](N(C)C)[C@H]2O)[C@](C)(OC)C[C@@H](C)C(=O)[C@H](C)[C@H]2N(CCCCn3cnc(-c4cccnc4)c3)C(=O)O[C@]12C [Telithromycin]
Settings | Bliss interaction score
B. subtilis 168 [2] | 0.0819
S. aureus DSM 20231 | 0.0793
S. aureus Newman | -0.109
S. pneumoniae D39V | -0.0487

CN[C@@H]1[C@H](O[C@H]2[C@H](O[C@H]3[C@H](O)[C@@H](O)[C@H](N=C(N)N)[C@@H](O)[C@@H]3N=C(N)N)O[C@@H](C)[C@]2(O)C=O)O[C@@H](CO)[C@H](O)[C@H]1O [Streptomycin] + Cc1cc(NS(=O)(=O)c2ccc(N)cc2)no1 [Sulfamethoxazol]
Settings | Bliss interaction score
B. subtilis 168 [2] | -0.126
S. aureus DSM 20231 | 0.0929
S. aureus Newman | 0.0497
S. pneumoniae D39V | 0.0624

CN[C@@H]1[C@H](O[C@H]2[C@H](O[C@H]3[C@H](O)[C@@H](O)[C@H](N=C(N)N)[C@@H](O)[C@@H]3N=C(N)N)O[C@@H](C)[C@]2(O)C=O)O[C@@H](CO)[C@H](O)[C@H]1O [Streptomycin] + Oc1cc(Cl)ccc1Oc1ccc(Cl)cc1Cl [Triclosan]
Settings | Bliss interaction score
B. subtilis 168 [2] | -0.249
S. aureus DSM 20231 | -0.06
S. aureus Newman | -0.0312
S. pneumoniae D39V | 0.0606
